We go through 47 molecules from patent US11286268B1, “EIF4E-inhibiting compounds and methods” (EFFECTOR THERAPEUTICS, INC., priority 2019, dated 2022).

Read-outs that look alike come from different tables or passages of the source.

The assay deals with recombinant eIF4E (Homo sapiens (Human), UniProt P06730). Briefly: Fluorescence polarization competition assay for eIF4E binding potency. The essentials: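 FP readout; IC50 fit from 8-point, 3-fold series. 75 nM eIF4E + 20 nM ATTO-550-labelled m7GDP probe, Tris pH 7.5/NaCl/DTT/Tween buffer, 1% DMSO final. 30 min RT equilibration, light-protected.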
(In general: Fluorescence polarisation rises when a labelled molecule tumbles more slowly, as on binding a larger partner.)

Setting [1] is: inhibition of eIF4E/EDA-m7GDP-ATTO-550 binding, calculated IC50 values, Table 4B, read-out: IC50.
Where [2] appears, read: fluorescence polarization competition, 75 nM recombinant eIF4E, 20 nM EDA-m7GDP-ATTO-550, IC50 class, read-out: elF4E FP.
Where [3] appears, read: inhibition of eIF4E/EDA-m7GDP-ATTO-550 binding by 50%, Table 4B calculated values, read-out: IC50.

recombinant eIF4E, sequence (P06730 whole entry): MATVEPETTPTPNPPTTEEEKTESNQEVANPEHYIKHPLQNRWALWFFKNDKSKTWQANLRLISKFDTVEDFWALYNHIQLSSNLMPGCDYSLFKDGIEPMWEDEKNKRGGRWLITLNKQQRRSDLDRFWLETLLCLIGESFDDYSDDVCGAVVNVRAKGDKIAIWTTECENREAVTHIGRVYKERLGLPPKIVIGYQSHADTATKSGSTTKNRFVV

Turning to `Cc1cc(-c2cc(Cl)ccc2OCCn2c(C)nc3cc(S(C)(=O)=O)c(N4CCN(C)CC4)c(C#N)c3c2=O)c2scc(C(=O)O)c2n1` [compound 1295], the IC50 under setting [1] is 13.4 nM.

As for `Cc1nc2cc(C(F)(F)F)cc(C#N)c2c(=O)n1CCOc1ccc(Cl)cc1-c1cn(C)c(=O)c2c(C(=O)O)csc12` [compound 590], the IC50 reads like this: under setting [2], below 50 nM; under setting [3], 2.26 nM. With `Cc1nc2cnc(N3CCN(C(C)C(F)F)CC3)c(C#N)c2c(=O)n1CC#Cc1ccc(Cl)cc1-c1ccnc2c(C(=O)O)csc12` (stereo not shown) [compound 1466], the IC50 under setting [1] was 17.9 nM. Regarding `Cc1cnc(C)c(-c2c(C(F)(F)F)cc3nc(C)n(CCOc4ccc(Cl)cc4-c4cc(C)nc5c(C(=O)O)csc45)c(=O)c3c2C#N)n1` [compound 968], the IC50 under setting [2] was below 50 nM and the IC50 under setting [3] is 8.95 nM.

For the molecule `Cc1cc(-c2cc(Cl)ccc2OCCn2c(C)nc3cc(C(F)(F)F)cc(C#N)c3c2=O)cc(C(=O)O)n1` [compound 410], the IC50 was 50 to 1000 nM under setting [2] and 62.6 nM under setting [3]. Taken in the same sequence, the figures for `CC(C)(C#N)c1cc(C(=O)O)cc(-c2cc(Cl)ccc2OCCn2cnc3cnc(C#N)cc3c2=O)c1` [compound 110] were above 1000 nM and 26900 nM. For `Cc1nc2cnc(N3CCC(N4CC(F)(F)C4)CC3)c(C#N)c2c(=O)n1CC#Cc1ccc(Cl)cc1-c1ccnc2c(C(=O)O)csc12` [compound 1467], the IC50 under setting [1] was 11 nM. Take `Cc1cc(-c2cc(Cl)ccc2OCCn2c(C)nc3cc(Cl)c(O)c(C#N)c3c2=O)c2scc(C(=O)O)c2n1` [compound 695]: the IC50 by setting is: under setting [2], below 50 nM; under setting [3], 1.05 nM.

Turning to `Cc1nc2cnc(C3CCCN(CC(F)F)C3)c(C#N)c2c(=O)n1CCCc1ccc(Cl)cc1-c1ccnc2c(C(=O)O)csc12` (stereo not shown) [compound 1571], the IC50 under setting [1] was 20.5 nM. For the molecule `Cc1nc2cnc(N3CCN(C)C4(CC4)C3)c(C#N)c2c(=O)n1CCOc1ccc(Cl)cc1-c1ccnc2c(C(=O)O)csc12` [compound 1337], the IC50 under setting [1] is 51.9 nM. As to `Cc1cc(-c2cc(Cl)ccc2OCCc2nc3cc(N4CCN(C)CC4)c(C(F)(F)F)cc3nc2C)c2scc(C(=O)O)c2n1` [compound 1211], the IC50 reads like this: under setting [2], 50 to 1000 nM; under setting [1], above 1000 nM.

For `N#Cc1cccc2nc(C(F)F)n(CCOc3ccc(Cl)cc3-c3cccc(C(=O)O)c3)c(=O)c12` [compound 1973], the IC50 under setting [1] was 14.3 nM. For `Cc1cc(-c2cc(Cl)ccc2OCCn2c(C)nc3cnc(-c4ccccc4Cl)c(C#N)c3c2=O)c2scc(C(=O)O)c2n1` [compound 947], the IC50 by setting is: under setting [2], below 50 nM; under setting [3], 23.7 nM. As to `Cc1nc2cnc(N(C)C3CCN(CCC(F)(F)F)CC3)c(C#N)c2c(=O)n1CC#Cc1ccc(Cl)cc1-c1ccnc2c(C(=O)O)csc12` [compound 1520], the IC50 under setting [1] was 17.9 nM. Turning to `Cc1nc2cc(C(F)(F)F)c(N3CCN(CCC(F)(F)F)CC3)c(C#N)c2c(=O)n1CCCc1ccc(Cl)cc1-c1ccnc2c(C(=O)O)csc12` [compound 1156], the IC50 was below 50 nM under setting [2] and 35.1 nM under setting [3]. Turning to `Cc1cc(-c2cc(Cl)ccc2OCCn2c(C)nc3cc(C(F)(F)F)c(-c4cc(F)cnc4C)c(C#N)c3c2=O)c2scc(C(=O)OCCN3CCCC3)c2n1` [compound 1081], the IC50 runs as follows: under setting [2], above 1000 nM; under setting [3], 1040 nM. In the case of `Cc1cc(-c2cc(Cl)ccc2OCCn2c(C)nc3ccc(N4CCN(C)CC4)cc3c2=O)c2scc(C(=O)O)c2n1` [compound 811], the IC50 under setting [2] was in the range of 50 to 1000 nM. `Cc1nc2cc(C(F)(F)F)cc(C#N)c2c(=O)n1CCOc1ccc(Cl)cc1-c1ccnc2c(C(=O)O)cnn12` [compound 661]: the IC50 is below 50 nM under setting [2] and 12.1 nM under setting [3]. In the case of `Cc1nc2cnc(N3CCN(CCOC(F)(F)F)CC3)c(C#N)c2c(=O)n1CC#Cc1ccc(Cl)cc1-c1ccnc2c(C(=O)O)csc12` [compound 1161], the IC50 under setting [2] was below 50 nM and the IC50 under setting [3] was 19.5 nM. Take `N#Cc1ncc(CCOc2ccc(Cl)cc2-c2cccc(C(=O)O)c2)c2c(=O)[nH]c(Nc3ccccc3)nc12` [compound 179]: the IC50 under setting [2] was below 50 nM and the IC50 under setting [3] is 20.6 nM. With `Cc1cc(-c2cc(Cl)ccc2OCCn2c(C)nc3cnc(N(C)C4CCN(C)CC4)c(C#N)c3c2=O)c2sc(C)c(C(=O)O)c2n1` [compound 848], the IC50 under setting [2] is below 50 nM and the IC50 under setting [3] was 26.9 nM. In the case of `Cc1nc2cc(F)c(F)c(C#N)c2c(=O)n1CCOc1ccc(Cl)cc1-c1ccnc2c(C(=O)NS(C)(=O)=O)csc12` [compound 307], the IC50 was 50 to 1000 nM under setting [2] and 59.4 nM under setting [3]. Turning to `Cc1nc2cnc(N3CCN4CC(F)(F)CC4C3)c(C#N)c2c(=O)n1CCOc1ccc(Cl)cc1-c1ccnc2c(C(=O)O)csc12` (stereo not shown) [compound 1311], under setting [1], the IC50 is 13.3 nM. As to `Cc1nc2cnc(N(C)C3CCN(CC(C)(C)F)CC3)c(C#N)c2c(=O)n1CC#Cc1ccc(Cl)cc1-c1ccnc2c(C(=O)O)csc12` [compound 1142], the IC50 is, setting by setting: under setting [2], below 50 nM; under setting [3], 13 nM. As to `Cc1cc(-c2cc(Cl)ccc2OCCn2c(C)nc3cnc(N4CC(OCC(F)(F)F)C4)c(C#N)c3c2=O)c2scc(C(=O)O)c2n1` [compound 1044], the IC50 under setting [2] is below 50 nM and the IC50 under setting [3] is 5.31 nM.

In the case of `Cc1nc2cc(F)c(CN(C)C)c(C#N)c2c(=O)n1CCOc1ccc(Cl)cc1-c1ccnc2c(C(=O)O)csc12` [compound 311], the IC50 under setting [2] lay within 50 to 1000 nM and the IC50 under setting [3] is 55.5 nM. As to `Cc1cc(-c2cc(Cl)ccc2OCCn2c(C)nc3c(C)nc(C)c(C#N)c3c2=O)c2scc(C(=O)O)c2n1` [compound 492], the IC50 is, setting by setting: under setting [2], below 50 nM; under setting [3], 29.7 nM. As to `Cc1nc2cc(C(F)(F)F)cc(C#N)c2c(=O)n1CCOc1ccc(Cl)cc1-c1ccnc2c(-c3cc(O)no3)csc12` [compound 1375], the IC50 under setting [1] is 83.9 nM. As for `N#Cc1cccc2nc(C(F)F)n(CCOc3ccc(Cl)cc3-c3ccc(C(=O)O)c(C(=O)O)c3)c(=O)c12` [compound 148], the IC50 under setting [2] is below 50 nM and the IC50 under setting [3] was 20.5 nM.

`C#Cc1cc(C#N)c2c(=O)n(CCOc3ccc(Cl)cc3-c3ccnc4c(C(=O)O)csc34)c(C)nc2c1` [compound 213]: the IC50 by setting is: under setting [2], below 50 nM; under setting [3], 35.6 nM.

On to `Cc1cc(-c2cc(Cl)ccc2OCCn2c(C)nc3cnc(C(C)(F)F)c(C#N)c3c2=O)c2scc(C(=O)O)c2n1` [compound 913], for which the IC50 is below 50 nM under setting [2] and 16.2 nM under setting [3]. Consider `Cc1cc(-c2nc3c(=O)n(CCOc4ccc(Cl)cc4-c4ccc(C#N)c5c(C(=O)O)csc45)c(C)nc3cc2C(F)(F)F)ccn1` [788Fa], for which the IC50 under setting [2] is above 1000 nM and the IC50 under setting [3] is 1940 nM. With `COc1ncc2nc(C)n(CCOc3ccc(Cl)cc3-c3cc(C)nc4c(C(=O)O)csc34)c(=O)c2c1C#N` [compound 897], the IC50 under setting [2] is below 50 nM and the IC50 under setting [3] is 1.4 nM. `Cc1cc(-c2cc(Cl)ccc2OCCn2c(C)nc3cc(C(F)(F)F)cc(C#N)c3c2=O)c2sc(C)c(C(=O)O)c2n1` [compound 668]: the IC50 was below 50 nM under setting [2] and 7.76 nM under setting [3]. Taken in the same sequence, the figures for `Cc1nc2cc(C(F)(F)F)cc(C#N)c2c(=O)n1CCOc1ccc(Cl)cc1N1CCC(CC(=O)O)CC1` [compound 328] were above 1000 nM and 1320 nM. Taken in the same sequence, the figures for `Cc1nc2cc(Cl)c(F)c(C#N)c2c(=O)n1CCOc1ccc(Cl)cc1-c1ccnc2c(C(=O)O)csc12` [compound 242] were below 50 nM and 20.3 nM.

Take `Cc1cc(-c2cc(Cl)ccc2OCCn2c(C)nc3c(C)nc(-c4ccc(C(F)(F)F)cc4)c(C#N)c3c2=O)c2scc(C(=O)O)c2n1` [compound 926]: the IC50 was below 50 nM under setting [2] and 18.3 nM under setting [3]. Consider `Cc1cc(-c2cc(Cl)ccc2OCCn2c(C)nc3cc(Cl)c(N4CC(O)C4)c(C#N)c3c2=O)c2scc(C(=O)O)c2n1` [compound 698], for which the IC50 by setting is: under setting [2], below 50 nM; under setting [3], 3.4 nM. For the molecule `N#Cc1cc2c(=O)n(CCOc3ccc(Cl)cc3-c3ccc(C(=O)O)o3)cnc2cn1` [compound 79], the IC50 reads like this: under setting [2], above 1000 nM; under setting [3], 1650 nM. As for `Cc1nc2cnc(N(C)C3CCN(C)CC3)c(C#N)c2c(=O)n1CC#Cc1ccc(Cl)cc1-c1ccnc2c(C(=O)O)csc12` [compound 1495], the IC50 under setting [1] is 7.09 nM.

On to `Cc1nc2cc(C(F)(F)F)c(CN3CCN(C)CC3)c(C#N)c2c(=O)n1CC#Cc1ccc(Cl)cc1-c1ccnc2c(C(=O)O)csc12` [compound 615], for which the IC50 reads like this: under setting [2], below 50 nM; under setting [3], 16.3 nM.

Turning to `Cc1cc(-c2cc(Cl)ccc2OCCn2c(C)nc3cc(C(F)(F)F)c(-c4nccnc4C)nc3c2=O)c2scc(C(=O)O)c2n1` [compound 1019], the IC50 reads like this: under setting [2], below 50 nM; under setting [3], 30.8 nM. Taken in the same sequence, the figures for `O=C(O)c1cccc(-c2cc(Cl)ccc2OCCn2cnc3cc(F)c(F)cc3c2=O)c1` [compound 77] were above 1000 nM and 1440 nM. With `Cc1cc(-c2cc(Cl)ccc2OCCn2c(C)nc3cc(C(F)F)c(C)c(C#N)c3c2=O)c2scc(C(=O)O)c2n1` [compound 627], the IC50 was below 50 nM under setting [2] and 6.72 nM under setting [3]. As for `Cc1sc2c(-c3cc(Cl)ccc3OCCn3c(C)nc4c(F)cc(C(F)F)c(C#N)c4c3=O)ccnc2c1C(=O)O` [compound 123], the IC50 is, setting by setting: under setting [2], below 50 nM; under setting [3], 36.5 nM. In the case of `Cc1nc2cnc(N3CCC(N4CCC(F)(F)CC4)CC3)c(C#N)c2c(=O)n1CC#Cc1ccc(Cl)cc1-c1ccnc2c(C(=O)O)csc12` [compound 1180], under setting [2], the IC50 is below 50 nM.

For the molecule `Cc1nc2cc(CCN(C)C)cc(C#N)c2c(=O)n1CCOc1ccc(Cl)cc1-c1ccnc2c(C(=O)O)csc12` [compound 513], the IC50 under setting [2] is below 50 nM and the IC50 under setting [3] is 11.6 nM.
